Results published in US20220228985A1, “FLUORESCENT COMPOSITION FOR DETECTING BIOLOGICAL MATERIAL” (Bioacts Corporation, priority 2021, published 2022).

System: red blood cells
Assay: Microscopic analysis of hemolytic efficacy of surfactant compound
Format: cell-based
Details: E-check (low concentration), microscope X200 DIC, control PBS, FIG. 4
Procedure: Microscopic analysis was performed to visually confirm the blood hemolysis effect of the blood analysis reagent prepared with the compound of Chemical Formula 3 and the compound of Chemical Formula 4 as the surfactant compound. The blood analysis reagent prepared in E-check (low concentration), a quality control reagent, was treated and microscopic analysis was performed. The analysis was performed with a Nikon ECLIPSE microscope, and measured under X200 DIC filter conditions. As a control, a sample obtained by treating PBS in an E-check reagent was used.

Structure (SMILES) | hemolysis of red blood cells
CCCCCCCCCCCCCCn1cc(COCCOCCOCCOCCOCCOCCOCCOCCOCCOCCOCCOCCOCCOCCOCCOCCOCCOCCOCCOCCOCCO)nn1 [Chemical Formula 4] | excellent efficacy in hemolysis of red blood cells
CCCCCCCCn1cc(COCCOCCOCCOCCOCCOCCOCCOCCOCCOCCO)nn1 [Compound 3b] | most cleanly hemolyzed
